Data as given in patent US9718833B2, “Tritoqualine hydrochloride in crystalline form and a process for obtaining same” (priority 2013, dated 2017).
≈ marks a conversion by molar mass, not a printed value.

Key:
[1] = Solubility in organic solvents (ethers, alcohols, glycols, ketones); type: physicochemical
[2] = hydrochloride formed in situ by addition of hydrochloric acid to tritoqualine in solution; background statement; cited from earlier work
Solubility in ethanol = details: at 20° C.
[3] = in water at room temperature; background statement; cited from earlier work
[4] = target: T1, L-histidine decarboxylase (Homo sapiens, UniProt P19113); details: background statement; cited from earlier work
T1 sequence (P19113 1-662): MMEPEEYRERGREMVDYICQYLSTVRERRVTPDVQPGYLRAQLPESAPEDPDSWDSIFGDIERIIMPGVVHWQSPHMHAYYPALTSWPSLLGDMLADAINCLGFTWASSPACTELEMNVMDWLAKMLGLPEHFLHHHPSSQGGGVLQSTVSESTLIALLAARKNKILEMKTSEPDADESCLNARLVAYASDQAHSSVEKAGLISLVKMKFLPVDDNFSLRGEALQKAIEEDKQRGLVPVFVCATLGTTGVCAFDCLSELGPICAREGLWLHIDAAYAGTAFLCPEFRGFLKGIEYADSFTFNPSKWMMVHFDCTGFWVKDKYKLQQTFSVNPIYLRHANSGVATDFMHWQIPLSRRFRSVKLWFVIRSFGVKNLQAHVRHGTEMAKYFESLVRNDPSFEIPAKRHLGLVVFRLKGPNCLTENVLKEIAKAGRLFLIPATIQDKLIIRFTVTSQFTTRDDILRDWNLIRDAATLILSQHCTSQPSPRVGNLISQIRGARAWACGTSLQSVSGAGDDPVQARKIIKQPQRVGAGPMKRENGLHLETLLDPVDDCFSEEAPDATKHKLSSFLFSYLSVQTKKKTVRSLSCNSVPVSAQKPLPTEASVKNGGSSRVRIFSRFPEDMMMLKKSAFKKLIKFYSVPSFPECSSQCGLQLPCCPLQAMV

physchem = details: organic solvent or mixture

Compound | Solubility in alcohols and glycols compared with tritoqualine base ([1]; alcohols and glycols) | Solubility in ethers ([1]; ethers) | Solubility in primary alcohols, acetone and methyl ethyl ketone ([1]; primary alcohols, acetone, methyl ethyl ketone) | Half lifetime in an aqueous solution [2] | Behaviour in aqueous solution at pH>3.0 (Solubility in water) | Solubility in ethanol (Solubility in ethanol) | melting point | Solubility in water [3] | Activity as enzymatic inhibitor of L-histidine decarboxylase [4] | solubility (physchem; 20 °C) | solubility (physchem)
tritoqualine hydrochloride | much more soluble than tritoqualine base | very little soluble or even insoluble | soluble | a few hours | precipitates | >300 g/l at | – | – | – | – | –
CCOc1c(N)c2c(c(OCC)c1OCC)C(C1c3c(cc4c(c3OC)OCO4)CCN1C)OC2=O (centres unmarked) [Base, 7-amino-4,5,6-triethoxy-3-(4-methoxy-6-methyl-7,8-dihydro-5H-[1,3]dioxolo[4,5-g]isoquinoline-5-yl)-3H-isobenzofuran-1-one] | – | – | – | – | – | – | 184 °C | 100 ppm | very low | 2.5 mg/mL (≈ 4.99 mM) | 50 mg/mL (≈ 99.9 mM)
